Reference: US20210213010A1, “TLR7/8 AGONISTS AND LIPOSOME COMPOSITIONS” (Torque Therapeutics, Inc., priority 2018, published 2021)
“Also recorded” adds a separate entry of the source.

Key:
[1] = Cryo-TEM of remote loaded liposomes (intraliposomal precipitation); type: physicochemical
Experimental: CryoTEM samples of 3 μL of liposome solution was placed on a lacy carbon 300 mesh copper TEM grid, blotted and plunge frozen in liquid ethane using a FEI Vitrobot Mark IV. Samples were imaged using a FEI Tecnai G2 20 TWIN transmission electron microscope operated at 200 keV in low dose mode with a FEI High-Sensitive (HS) 4 k×4 k Eagle camera.

[2] = tested on: whole human blood; experiment: IL-6 cytokine expression in stimulated whole human blood (ELISA); type: cell-based
Experimental: (§1) This example describes the general procedure used to assess the level of cytokine IL-6 and IL-12p40 expressions upon stimuli of whole human blood with small molecules or small molecules in liposomal formulations F1 and F2. 10 mM DMSO solutions of the small molecules were diluted in RPMI media (RPMI-1640, Sigma Aldrich) with 1% penicillin/streptomycin (p/s). […], of each dilution was transferred to Nunc™ 96-Well Polystyrene Conical Bottom MicroWell™ Plates in duplicates. Blood was drawn from two human donors, diluted in RPMI with 1% p/s and added to each well to reach final concentrations of 10 μM, 1 μM, and 0.1 μM of the small molecules. The plates were incubated at 37° C. in a cell incubator for 24h. The plates were then spun down in a plate centrifuge with 3200 revolutions per minute (rpm) for 10 min before 50 uL of the supernatant was transferred to new 96-well plates. The supernatant samples were subsequently stored at −80° C. until the day of cytokine measurements.
(§2) The level of cytokine expression was measured using either an IL-6 ELISA Kit (RnDSystems, cat #DY206) for IL-6, or an IL-12p40 ELISA Kit (RnDSystems, cat #DY1240) according to the manufacturer's protocols. This general procedure was used to generate the examples 24-33.

[3] = tested on: whole human blood; experiment: IL-12p40 cytokine expression in stimulated whole human blood (ELISA); type: cell-based
Experimental: as §1, §2

[4] = Remote loading efficiency of small molecules into liposomes (PD-10 size exclusion, HPLC); type: physicochemical
Experimental: A solution of the small molecule (modified TLR agonist) was lyophilized in a vial equipped with a magnetic stir bar over night to form a fluffy white powder. This powder was added either formulation F1 or F2 to the wanted drug/lipid ratio. The resulting mixture was stirred at 55° C. or 41° C. for formulation F1 and F2 respectively for 3h, then allowed to cool to rt before the solutions were refrigerated and stored at 4° C.
Remote loading efficiency was determined at 1 h and 3 h by taking out 100 μL of the mixture and applying this and 900 μL buffer (25 mM HEPES, 10 vol % sucrose buffer, pH 7.4) to a PD-10 column size exclusion column. Following, 10×1 mL fractions were collected, and the small molecule compound concentrations in the loading mixture and in the liposome containing fractions were determined on analytical HPLC. Loading efficiency was calculated as percentage of molecules found in liposome containing fractions out of the applied amount. The general procedure for the small molecule remote loading is visualized in FIG. 3. The general concept of remote loading imidazoquinolines in liposomes that are dialyzed against HEPES is visualized in FIG. 4.

[5] = free small molecule, 10, 1, 0.1 μM, 24 h, two donors

For `CCOCc1nc2c(N)nc3ccccc3c2n1CCN` [MK079-D, 1-(2-aminoethyl)-2-(ethoxymethyl)-1H-imidazo[4,5-c]quinolin-4-amine], the “Precipitation in liposomes (Cryo-TEM)” value ([1]; formulation F1, HEPES, drug/lipid ratio 0.25) was “precipitation of the small molecule inside the aqueous core of the liposomes”, the “Precipitation in liposomes (Cryo-TEM)” value ([1]; formulation F1, HEPES, drug/lipid ratio 0.50) was “precipitation of the small molecule in the aqueous core of the liposomes” and the “Precipitation in liposomes (Cryo-TEM)” value ([1]; formulation F2, drug/lipid ratio 0.25) was “precipitation of the small molecule in the aqueous core of the liposomes”. For the same compound, the “Precipitation in liposomes (Cryo-TEM)” value ([1]; formulation F2, drug/lipid ratio 0.50) was “precipitation of the small molecule in the aqueous core of the liposomes”, the “Expression of IL-6 upon stimulation of whole human blood” value [2, 5] was “expression of IL-6 at 10 μM in both donors” and the “Expression of IL-6 upon stimulation of whole human blood” value ([2]; remote loaded in formulation F1, HEPES, drug/lipid ratio 0.06) was “an expression of IL-6 at 10 μM”. For the same compound, the “Expression of IL-6 upon stimulation of whole human blood” value ([2]; remote loaded in formulation F1, TAPS, drug/lipid ratio 0.06) was “no expression of IL-6 at 10 μM”, the “Expression of IL-6 upon stimulation of whole human blood” value ([2]; remote loaded in formulation F2, HEPES, drug/lipid ratio 0.06) was “able to induce expression of IL-6” and the “Expression of IL-6 upon stimulation of whole human blood” value ([2]; remote loaded in formulation F2, TAPS, drug/lipid ratio 0.06) was “resulted in an expression of IL-6”. The “Expression of IL-12p40 upon stimulation of whole human blood” value [3, 5] was “expression of IL-12p40 at 10 μM in both donors”, the “Expression of IL-12p40 upon stimulation of whole human blood” value ([3]; remote loaded in formulation F1, HEPES or TAPS, drug/lipid ratio 0.06) was “did not lead to any expression of IL-12p40” and the “Expression of IL-12p40 upon stimulation of whole human blood” value ([3]; remote loaded in formulation F2, HEPES or TAPS, drug/lipid ratio 0.06) was “Induction of IL-12p40 expression was observed; also recorded: larger expression of IL-12p40 when dialyzed against HEPES compared to TAPS”. The “Remote loading efficiency 1 h (%)” value ([4]; formulation F1, HEPES, drug/lipid ratio 0.06, 1 h) was 87%, the “Remote loading efficiency 3 h (%)” value ([4]; formulation F1, HEPES, drug/lipid ratio 0.06, 3 h) was 98% and the “Remote loading efficiency 1 h (%)” value ([4]; formulation F1, HEPES, drug/lipid ratio 0.10, 1 h) was 93%. For the same compound, the “Remote loading efficiency 3 h (%)” value ([4]; formulation F1, HEPES, drug/lipid ratio 0.10, 3 h) was 95%, the “Remote loading efficiency 1 h (%)” value ([4]; formulation F1, HEPES, drug/lipid ratio 0.25, 1 h) was 90% and the “Remote loading efficiency 3 h (%)” value ([4]; formulation F1, HEPES, drug/lipid ratio 0.25, 3 h) was 98%. For the same compound, the “Remote loading efficiency 1 h (%)” value ([4]; formulation F1, HEPES, drug/lipid ratio 0.50, 1 h) was 77%, the “Remote loading efficiency 3 h (%)” value ([4]; formulation F1, HEPES, drug/lipid ratio 0.50, 3 h) was 70% and the “Remote loading efficiency 1 h (%)” value ([4]; formulation F1, TAPS pH 8.5, drug/lipid ratio 0.06, 1 h) was 80%. For the same compound, the “Remote loading efficiency 3 h (%)” value ([4]; formulation F1, TAPS pH 8.5, drug/lipid ratio 0.06, 3 h) was 77%, the “Remote loading efficiency 1 h (%)” value ([4]; formulation F2, HEPES, drug/lipid ratio 0.06, 1 h) was 81% and the “Remote loading efficiency 3 h (%)” value ([4]; formulation F2, HEPES, drug/lipid ratio 0.06, 3 h) was 81%. For the same compound, the “Remote loading efficiency 1 h (%)” value ([4]; formulation F2, HEPES, drug/lipid ratio 0.10, 1 h) was 82%, the “Remote loading efficiency 3 h (%)” value ([4]; formulation F2, HEPES, drug/lipid ratio 0.10, 3 h) was 88% and the “Remote loading efficiency 1 h (%)” value ([4]; formulation F2, HEPES, drug/lipid ratio 0.25, 1 h) was 90%. For the same compound, the “Remote loading efficiency 3 h (%)” value ([4]; formulation F2, HEPES, drug/lipid ratio 0.25, 3 h) was 94%, the “Remote loading efficiency 1 h (%)” value ([4]; formulation F2, HEPES, drug/lipid ratio 0.50, 1 h) was 73% and the “Remote loading efficiency 3 h (%)” value ([4]; formulation F2, HEPES, drug/lipid ratio 0.50, 3 h) was 57%. The “Remote loading efficiency 1 h (%)” value ([4]; formulation F2, TAPS pH 8.5, drug/lipid ratio 0.06, 1 h) was 80% and the “Remote loading efficiency 3 h (%)” value ([4]; formulation F2, TAPS pH 8.5, drug/lipid ratio 0.06, 3 h) was 70%.
